This is an account of results in patent US20250326771A1, “PIPERAZINE DERIVATIVES USEFUL IN HIV THERAPY” (VIIV HEALTHCARE COMPANY, priority 2022, published 2025).

The subject of experiment [1] is Jurkat HIV-luciferase clones. In words: Jurkat latency reversal assay. Format: cell-based. The conditions noted are these: Homo sapiens, 48 h; Jurkat latency reversal assay potency; read-out: Jurkat pEC50 (converted). In short, it runs like this: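 Compounds are titrated 3-fold over 14 points from 10 μM in duplicate at 0.5% DMSO. Clones C16, 115 and N6, grown with 500 nM EFV, are co-incubated for 48 h at 37° C. Virally driven luciferase is read by luminescence, and EC50 and maximal percent activation versus vehicle come from a four-parameter model.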

Another experiment concerns the target cIAP1-BIR3 (Homo sapiens (Human), UniProt Q13490). Briefly: BIR binding assay (FRET competition), cIAP1 BIR3. The conditions noted are these: for cIAP1 BIR3 vs BIR2 separation window: fold separation (FS) for cIAP1. In short, it runs like this:
(§1)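 Each domain is run separately at its own level: 50 nM cIAP1-BIR3, 100 nM XIAP-BIR3, 325 nM for cIAP1-BIR2 or cIAP2-BIR2. Probe is a 200 nM fluorescent SMAC peptide, and the value is IC50 from FRET competition.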

The target in the next experiment is cIAP2-BIR3 (Homo sapiens (Human), UniProt Q13489). Briefly: BIR binding assay (FRET competition), cIAP2 BIR3. The conditions noted are these: for cIAP2 BIR3 vs BIR2 separation window: fold separation (FS) for cIAP2.
Chain of cIAP2-BIR3 (Q13489 238-349): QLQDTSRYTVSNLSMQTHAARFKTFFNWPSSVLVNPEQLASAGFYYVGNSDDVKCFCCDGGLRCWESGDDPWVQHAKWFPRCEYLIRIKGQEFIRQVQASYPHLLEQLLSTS
For the next experiment, the target named is XIAP-BIR3 (Homo sapiens (Human), UniProt P98170). In words: BIR binding assay (FRET competition), XIAP BIR3. The conditions noted are these: for XIAP BIR3 vs BIR2 separation window: fold separation (FS) for XIAP. In short, it runs like this:
as §1

For another experiment, the target named is XIAP-BIR2 (Homo sapiens (Human), UniProt P98170). Briefly: BIR binding assay (FRET competition), XIAP BIR2. The conditions noted are these: FRET competition binding. Here is the method: The BIR domain binding assays are FRET based competition assays that utilize His-tagged versions of each of the BIR2 and BIR3 domains from cIAP1, cIAP2, and XIAP (each domain assayed separately) each at a custom optimal concentration and a probe, 200 nM SMAC/DIABLO peptide AVPIAQKSE labelled with AlexaFluor647 (part #crb 1110326h, Discovery Peptides). The assay is conducted in 50 mM HEPES, […], 1 mM CHAPS, 5% Glycerol, 1 mM DTT, in dI water with a final pH of 7.4 and final volume of 20 uL. Final protein domain concentrations are: 50 nM cIAP1-BIR3 (Part #APT-11-370 Reaction Biology), 100 nM XIAP-BIR3 (Part #APT-11-351 Reaction Biology), 200 nM XIAP-BIR2 (Part #APT-11-470 Reaction Biology), 325 nM cIAP2-BIR2 (Part #APT-11-489 Reaction Biology), 50 nM cIAP2-BIR3 (Part #APT-11-372 Reaction Biology), 325 nM cIAP1-BIR2 (Part #APT-11-487 Reaction Biology). Compounds were plated using a HP Tecan D300 printer in a final total volume of 202 nl and DMSO concentration normalized across the 15-point, 3-fold dilution series. Peptide and probe were prepared at 2× relative to the concentrations above in binding buffer, 10 uL added to the prepared compound plates, and incubated for 60 minutes. LANCE Eu-W1024 (part #AD0401 Perkin Elmer #, vendor) was prepared at 2× concentration in binding buffer for final concentration of 2 nM, 10 uL added to each well, and plates incubated for 30 minutes. Plates were read on an ENVISION multifunction plate reader with […] laser excitation to obtain the 615 nm/665 nm emission ratio as indicative of probe:protein proximity. Data was analyzed using GraphPad PRISM and curves fit using log(inhibitor) vs. response—Variable slope (four […] method to obtain IC50 and pIC50 values.
Chain of XIAP-BIR2 (P98170 124-240): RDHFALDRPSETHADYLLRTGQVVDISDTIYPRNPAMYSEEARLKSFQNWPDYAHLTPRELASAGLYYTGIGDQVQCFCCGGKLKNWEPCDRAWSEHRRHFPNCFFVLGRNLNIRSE

The target in a further experiment is cIAP1-BIR2 (Homo sapiens (Human), UniProt Q13490). In words: BIR binding assay (FRET competition), cIAP1 BIR2. In short, it runs like this: as §1
Chain of cIAP1-BIR2 (Q13490 173-257): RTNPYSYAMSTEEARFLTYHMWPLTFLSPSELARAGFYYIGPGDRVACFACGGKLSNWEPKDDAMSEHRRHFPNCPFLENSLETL
In another experiment the target is cIAP2-BIR2 (Homo sapiens (Human), UniProt Q13489). In words: BIR binding assay (FRET competition), cIAP2 BIR2. In short, it runs like this: as §1
Chain of cIAP2-BIR2 (Q13489 158-242): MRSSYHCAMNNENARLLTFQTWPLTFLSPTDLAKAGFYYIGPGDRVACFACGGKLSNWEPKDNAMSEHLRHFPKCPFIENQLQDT

Chain of XIAP-BIR3 (P98170 241-356): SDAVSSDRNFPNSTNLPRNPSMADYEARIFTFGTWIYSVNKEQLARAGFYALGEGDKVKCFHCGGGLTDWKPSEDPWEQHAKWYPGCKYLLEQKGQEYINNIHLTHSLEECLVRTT
Chain of cIAP1-BIR3 (Q13490 253-363): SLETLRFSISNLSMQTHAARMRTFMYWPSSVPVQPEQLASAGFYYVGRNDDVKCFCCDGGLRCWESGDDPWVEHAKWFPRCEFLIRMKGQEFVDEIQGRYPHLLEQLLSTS

Take `C[C@@H]1CN(CC(=O)N2CC(C)(C)c3[nH]c(=O)c(Cc4ccc(F)cc4)cc32)[C@@H](CN2CCC(C(F)(F)COc3cccc(OCC(F)(F)C4CCN(C[C@H]5CN[C@H](C)CN5CC(=O)N5CC(C)(C)c6[nH]c(=O)c(Cc7ccc(F)cc7)cc65)CC4)c3)CC2)CN1` [Example 110, 1,1′-(2,2′-((3R,3′R,6R,6′R)-((((1,3-phenylenebis(oxy))bis(1,1-difluoroethane-2,1-diyl))bis(piperidine-4,1-diyl))bis(methylene))bis(3-methylpiperazine-6,1-diyl))bis(acetyl))bis(6-(4-fluorobenzyl)-3,3-dimethyl-1,2,3,4-tetrahydro-5H-pyrrolo[3,2-b]pyridin-5-one)]: the EC50 in experiment [1] is 0.49 to 12.6 nM. Besides, the IC50 on cIAP1-BIR3 is 15.8 to 31.6 nM; on cIAP2-BIR3, 15.8 to 31.6 nM; on XIAP-BIR3 it was 15.8 to 31.6 nM; on XIAP-BIR2 (read-out: XIAP BIR2 (pIC50) (converted)), 10000 to 51300 nM. For the same compound, the “XIAP BIR3 vs BIR2 separation window” value at XIAP-BIR3 is reported as “++++ (FS>10,000)”.
Consider `C[C@@H]1CN(CC(=O)N2CC(C)(C)c3[nH]c(=O)c(Cc4ccc(F)cc4)cc32)[C@@H](CN2CCO[C@H](COc3ccc(-c4ccccc4)c(OC[C@@H]4CN(C[C@H]5CN[C@H](C)CN5CC(=O)N5CC(C)(C)c6[nH]c(=O)c(Cc7ccc(F)cc7)cc65)CCO4)c3)C2)CN1` [Example 78, 1,1′-(2,2′-((3R,3′R,6R,6′R)-(((2S,2'S)—(([1,1′-biphenyl]-2,4-diylbis(oxy))bis(methylene))bis(morpholine-2,4-diyl))bis(methylene))bis(3-methylpiperazine-6,1-diyl))bis(acetyl))bis(6-(4-fluorobenzyl)-3,3-dimethyl-1,2,3,4-tetrahydro-5H-pyrrolo[3,2-b]pyridin-5-one)], for which the EC50 in experiment [1] was 12.6 to 63.1 nM. The IC50 on cIAP1-BIR3 lay in the range of 1.38 to 7.94 nM; at cIAP2-BIR3, 1.38 to 7.94 nM; at XIAP-BIR3 it was 7.94 to 15.8 nM. At XIAP-BIR3, the “XIAP BIR3 vs BIR2 separation window” value is “+++ (10,000>FS>1,000)”. Further, the “XIAP BIR2 (pIC50)” value on XIAP-BIR2 was “++ (5.00<pIC50<=5.50)”.
Regarding `Cc1cc(OC[C@@H]2CN(C[C@H]3CN[C@H](C)CN3CC(=O)N3CC(C)(C)c4[nH]c(=O)c(Cc5ccc(F)cc5)cc43)CCO2)cc(OC[C@@H]2CN(C[C@H]3CN[C@H](C)CN3CC(=O)N3CC(C)(C)c4[nH]c(=O)c(Cc5ccc(F)cc5)cc43)CCO2)c1` [Example 86, 1,1′-(2,2′-((3R,3′R,6R,6′R)-(((2S,2'S)-(((5-methyl-1,3-phenylene)bis(oxy))bis(methylene))bis(morpholine-2,4-diyl))bis(methylene))bis(3-methylpiperazine-6,1-diyl))bis(acetyl))bis(6-(4-fluorobenzyl)-3,3-dimethyl-1,2,3,4-tetrahydro-5H-pyrrolo[3,2-b]pyridin-5-one)], the EC50 in experiment [1] is 0.49 to 12.6 nM. Besides, the IC50 on cIAP1-BIR3 was in the range of 7.94 to 15.8 nM; at cIAP1-BIR2 it was 1000 to 3160 nM; on cIAP2-BIR3, 7.94 to 15.8 nM; on cIAP2-BIR2, 1000 to 3160 nM; on XIAP-BIR3, 15.8 to 31.6 nM. The “cIAP1 BIR3 vs BIR2 separation window” value on cIAP1-BIR3 is reported as “+++ (10,000>FS>1,000)”. The “cIAP2 BIR3 vs BIR2 separation window” value at cIAP2-BIR3 is listed as “+++ (10,000>FS>1,000)”.
For the compound `C[C@@H]1CN(CC(=O)N2CC(C)(C)c3c2cc(Cc2ccc(F)cc2)c(=O)n3C)[C@@H](CN2CCO[C@H](COCC#CC#CCOC[C@@H]3CN(C[C@H]4CN[C@H](C)CN4CC(=O)N4CC(C)(C)c5c4cc(Cc4ccc(F)cc4)c(=O)n5C)CCO3)C2)CN1` [Example 116, 1,1′-(2,2′-((3R,3′R,6R,6′R)-(((2S,2'S)-((hexa-2,4-diyne-1,6-diylbis(oxy))bis(methylene))bis(morpholine-2,4-diyl))bis(methylene))bis(3-methylpiperazine-6,1-diyl))bis(acetyl))bis(6-(4-fluorobenzyl)-3,3,4-trimethyl-1,2,3,4-tetrahydro-5H-pyrrolo[3,2-b]pyridin-5-one)], in experiment [1], the EC50 is 316 to 3310 nM. Moreover, the IC50 at cIAP1-BIR3 is 15.8 to 31.6 nM; on cIAP1-BIR2, 3160 to 10000 nM; on cIAP2-BIR3, 15.8 to 31.6 nM; at cIAP2-BIR2, 3160 to 10000 nM; on XIAP-BIR3, 31.6 to 501 nM. The “cIAP1 BIR3 vs BIR2 separation window” value on cIAP1-BIR3 is “+++ (10,000>FS>1,000)”. Moreover, on cIAP2-BIR3, the “cIAP2 BIR3 vs BIR2 separation window” value is recorded as “+++ (10,000>FS>1,000)”.
As for `COc1cc(F)ccc1Cc1cnc2c(c1)N(C(=O)CN1C[C@@H](C)NC[C@@H]1CN1CCO[C@H](COc3cccc(OC[C@@H]4CN(C[C@H]5CN[C@H](C)CN5CC(=O)N5CC(C)(C)c6ncc(Cc7ccc(F)cc7OC)cc65)CCO4)c3)C1)CC2(C)C` [Compound 151], the EC50 in experiment [1] was 63.1 to 316 nM. Moreover, the IC50 at cIAP1-BIR3 fell in the range of 15.8 to 31.6 nM; on cIAP1-BIR2, 3160 to 10000 nM; at cIAP2-BIR3, 7.94 to 15.8 nM; at cIAP2-BIR2, 3160 to 10000 nM; at XIAP-BIR3, 31.6 to 501 nM. Also, on cIAP1-BIR3, the “cIAP1 BIR3 vs BIR2 separation window” value was “+++ (10,000>FS>1,000)”. The “cIAP2 BIR3 vs BIR2 separation window” value on cIAP2-BIR3 is “+++ (10,000>FS>1,000)”.
Take `C[C@@H]1CN(CC(=O)N2CC(C)(C)c3[nH]c(=O)c(Cc4ccc(Br)cc4)cc32)[C@@H](CN2CCO[C@H](C(=O)NCc3ccc(CNC(=O)[C@@H]4CN(C[C@H]5CN[C@H](C)CN5CC(=O)N5CC(C)(C)c6[nH]c(=O)c(Cc7ccc(Br)cc7)cc65)CCO4)cc3)C2)CN1` [Compound 162, (2S,2′S)-N,N′-(1,4-phenylenebis(methylene)) bis(4-(((2R,5R)-1-(2-(6-(4-bromobenzyl)-3,3-dimethyl-5-oxo-2,3,4,5-tetrahydro-1H-pyrrolo[3,2-b]pyridin-1-yl)-2-oxoethyl)-5-methylpiperazin-2-yl)methyl)morpholine-2-carboxamide)]: the EC50 in experiment [1] was 12.6 to 63.1 nM. For the same compound, the IC50 at cIAP1-BIR3 lay within 1.38 to 7.94 nM; at cIAP1-BIR2 it was 22.4 to 1000 nM; on cIAP2-BIR3 it was 1.38 to 7.94 nM; at cIAP2-BIR2 it was 22.4 to 1000 nM; on XIAP-BIR3, 15.8 to 31.6 nM. Further, the “cIAP1 BIR3 vs BIR2 separation window” value at cIAP1-BIR3 is reported as “++ (1,000>FS>100)”. Also, the “cIAP2 BIR3 vs BIR2 separation window” value on cIAP2-BIR3 was “+++ (10,000>FS>1,000)”.
For `C[C@@H]1CN(CC(=O)N2CC(C)(C)c3[nH]c(=O)c(Cc4ccc(F)cc4)cc32)[C@@H](CN2CCO[C@H](COCCOCCOC[C@@H]3CN(C[C@H]4CN[C@H](C)CN4CC(=O)N4CC(C)(C)c5[nH]c(=O)c(Cc6ccc(F)cc6)cc54)CCO3)C2)CN1` [Example 83, 1,1′-(2,2′-((3R,3′R,6R,6′R)-(((2S,2'S)-(((oxybis(ethane-2,1-diyl))bis(oxy))bis(methylene))bis(morpholine-2,4-diyl))bis(methylene))bis(3-methylpiperazine-6,1-diyl))bis(acetyl))bis(6-(4-fluorobenzyl)-3,3-dimethyl-1,2,3,4-tetrahydro-5H-pyrrolo[3,2-b]pyridin-5-one)], the EC50 in experiment [1] is 12.6 to 63.1 nM. In addition, the IC50 was 15.8 to 31.6 nM on cIAP1-BIR3; 3160 to 10000 nM at cIAP1-BIR2; 15.8 to 31.6 nM at cIAP2-BIR3; 3160 to 10000 nM at cIAP2-BIR2; 15.8 to 31.6 nM on XIAP-BIR3. On cIAP1-BIR3, the “cIAP1 BIR3 vs BIR2 separation window” value was “+++ (10,000>FS>1,000)”. For the same compound, the “cIAP2 BIR3 vs BIR2 separation window” value on cIAP2-BIR3 was “+++ (10,000>FS>1,000)”.
